Measurements as given in US20070128217A1 (priority 2003, published 2007).

How the values were obtained:
[1] = system: antibodies in sera from SARS patients (sera 1a, 1b, 2, 6, 37, 62, London, SARS-yellow, SARS-green); type: binding, human; parameters: Binding of serum 6 to linear peptides of protein X1 of SARS-CoV Urbani / Binding of serum 37 to linear peptides of protein X1 of SARS-CoV Urbani / Binding of serum 6 to looped/cyclic peptide (PEPSCAN-ELISA) / Binding of serum 37 to looped/cyclic peptide (PEPSCAN-ELISA) / Binding of serum 37 to looped/cyclic peptides of protein X1 of SARS-CoV Urbani / Binding of serum 6 to linear peptides of protein X2 / Binding of serum 37 to linear peptides of protein X2 / Binding of serum 37 to looped/cyclic peptides of protein X2 of SARS-CoV Urbani / Binding of serum 6 to linear peptides of protein M of SARS-CoV Urbani / Binding of serum 37 to linear peptides of protein M of SARS-CoV Urbani / Binding of serum 6 to looped/cyclic peptides of protein M of SARS-CoV Urbani / Binding of serum 37 to looped/cyclic peptides of protein M of SARS-CoV Urbani / Binding of serum 6 to linear peptides of protein X3 of SARS-CoV Urbani / Binding of serum 37 to linear peptides of protein X3 of SARS-CoV Urbani / Binding of serum 37 to looped/cyclic peptides of protein X3 of SARS-CoV Urbani / Binding of serum 6 to linear peptides of protein X4 of SARS-CoV Urbani / Binding of serum 37 to linear peptides of protein X4 of SARS-CoV Urbani / Binding of serum 37 to looped/cyclic peptides of protein X4 of SARS-CoV Urbani / Binding of serum 6 to linear peptides of protein X5 of SARS-CoV Urbani / Binding of serum 37 to linear peptides of protein X5 of SARS-CoV Urbani / Binding of serum 37 to looped/cyclic peptides of protein X5 of SARS-CoV Urbani / Binding of serum 6 to linear peptides of protein N of SARS-CoV Urbani / Binding of serum 37 to linear peptides of protein N of SARS-CoV Urbani / Binding of serum 6 to linear peptide (PEPSCAN-ELISA) / Binding of serum 1a to looped/cyclic peptides of protein N of SARS-CoV Urbani / Binding of serum 1b to looped/cyclic peptides of protein N of SARS-CoV Urbani / Binding of serum 2 to looped/cyclic peptides of protein N of SARS-CoV Urbani / Binding of serum 6 to looped/cyclic peptides of protein N of SARS-CoV Urbani / Binding of serum 37 to looped/cyclic peptides of protein N of SARS-CoV Urbani / Binding of serum 62 to looped/cyclic peptides of protein N of SARS-CoV Urbani / Binding of serum London to looped/cyclic peptides of protein N of SARS-CoV Urbani / Binding of serum SARS-green to looped/cyclic peptides of protein N of SARS-CoV Urbani: unit not given here
[2] = system: rabbit serum obtained by immunizing a rabbit with the SARS-CoV strain Frankfurt 1; type: binding; parameters: Binding of a rabbit serum to linear peptides / Binding of a rabbit serum to looped peptides / Rabbit serum linear peptides / Rabbit serum looped peptides / Binding of a rabbit serum to linear peptides of protein N of SARS-CoV Urbani (Rabbit serum linear peptides) / Binding of a rabbit serum to looped/cyclic peptides of protein N of SARS-CoV Urbani (Rabbit serum looped peptides): unit not given here
[3] = system: control sera (pooled serum of ten healthy LUMC hospital workers; commercial negative donor pooled serum from the Dutch bloodbank); type: binding, human; parameters: Binding of Control serum LUMC to linear peptides / Binding of Control serum Blood-bank to linear peptides / Binding of Control serum LUMC to looped peptides / Binding of Control Serum Blood-Bank to Looped peptides / Binding of Control serum LUMC to linear peptides of the protein M of SARS-CoV Urbani / Binding of Control serum Blood-bank to linear peptides of the protein M of SARS-CoV Urbani / Binding of Control serum LUMC to looped peptides of the protein M of SARS-CoV Urbani / Binding of Control Serum Blood-Bank to Looped peptides of the protein M of SARS-CoV Urbani: unit not given here

## ACRTIMRCWLCWKCK
[1]
  Binding of serum 1a to looped/cyclic peptide (PEPSCAN-ELISA): 0.7
  Binding of serum 1b to looped/cyclic peptide (PEPSCAN-ELISA): 0.9
  Binding of serum 2 to looped/cyclic peptide (PEPSCAN-ELISA): 0.6
  Binding of serum 6 to looped/cyclic peptide (PEPSCAN-ELISA): 0.3
  Binding of serum 37 to looped/cyclic peptide (PEPSCAN-ELISA): 0.8
  Binding of serum 62 to looped/cyclic peptide (PEPSCAN-ELISA): 0.5
  Binding of serum London to looped/cyclic peptide (PEPSCAN-ELISA): 0.2
  Binding of serum SARS-green to looped/cyclic peptide (PEPSCAN-ELISA): 1.2
  Binding of serum SARS-yellow to looped/cyclic peptide (PEPSCAN-ELISA): 0.7

## AGTHITMTTVYHITV
[2]
  Binding of a rabbit serum to linear peptides: 0.7
  Binding of a rabbit serum to looped peptides: 0.5

## ASPASTVHATATIPL
[2]
  Binding of a rabbit serum to linear peptides: 1.4
  Binding of a rabbit serum to looped peptides: 0.5

## ASTVHATATIPLQAS
[2]
  Binding of a rabbit serum to linear peptides: 0.9
  Binding of a rabbit serum to looped peptides: 0.6

## CPSGTYEGNSPFHPL
[3]
  Binding of Control Serum Blood-Bank to Looped peptides: 0.8
  Binding of Control serum Blood-bank to linear peptides: 0.7
  Binding of Control serum LUMC to linear peptides: 0.6
  Binding of Control serum LUMC to looped peptides: 0.8

## CPSGTYEGNSPFNPL
[2]
  Rabbit serum linear peptides: 0.5
  Rabbit serum looped peptides: 0.7

## CWYLHEGHQTAAFRD
[2]
  Rabbit serum linear peptides: 0.3
  Rabbit serum looped peptides: 0.4

## GFQFICNLLLLFVTI
[1]
  Binding of serum 1a to linear peptides of protein X1 of SARS-CoV Urbani: 0.6
  Binding of serum 1a to looped/cyclic peptide (PEPSCAN-ELISA): 0.5
  Binding of serum 1b to linear peptides of protein X1 of SARS-CoV Urbani: 0.5
  Binding of serum 1b to looped/cyclic peptide (PEPSCAN-ELISA): 0.3
  Binding of serum 2 to linear peptides of protein X1 of SARS-CoV Urbani: 0.5
  Binding of serum 2 to looped/cyclic peptide (PEPSCAN-ELISA): 0.3
  Binding of serum 6 to linear peptides of protein X1 of SARS-CoV Urbani: 0.4
  Binding of serum 6 to looped/cyclic peptide (PEPSCAN-ELISA): 0.3
  Binding of serum 37 to linear peptides of protein X1 of SARS-CoV Urbani: 0.5
  Binding of serum 37 to looped/cyclic peptide (PEPSCAN-ELISA): 0.5
  Binding of serum 62 to linear peptides of protein X1 of SARS-CoV Urbani: 0.6
  Binding of serum 62 to looped/cyclic peptide (PEPSCAN-ELISA): 0.5
  Binding of serum London to linear peptides of protein X1 of SARS-CoV Urbani: 0.3
  Binding of serum London to looped/cyclic peptide (PEPSCAN-ELISA): 0.2
  Binding of serum SARS-green to linear peptides of protein X1 of SARS-CoV Urbani: 0.2
  Binding of serum SARS-green to looped/cyclic peptide (PEPSCAN-ELISA): 0.2
  Binding of serum SARS-yellow to linear peptides of protein X1 of SARS-CoV Urbani: 0.5
  Binding of serum SARS-yellow to looped/cyclic peptide (PEPSCAN-ELISA): 0.4
[3]
  Binding of Control Serum Blood-Bank to Looped peptides: 0.4
  Binding of Control serum Blood-bank to linear peptides: 0.4
  Binding of Control serum LUMC to linear peptides: 0.5
  Binding of Control serum LUMC to looped peptides: 0.5

## GHLRMAGHPLGRCDI
[2]
  Rabbit serum linear peptides: 0.4
  Rabbit serum looped peptides: 0.7

## GHPLGRCDTKDLPKE
[2]
  Rabbit serum linear peptides: 0.3
  Rabbit serum looped peptides: 0.0

## GNSPFHPLADNKFAL
[2]
  Rabbit serum linear peptides: 0.5
  Rabbit serum looped peptides: 1.0

## GTHITMTTVYHITVS
[2]
  Binding of a rabbit serum to linear peptides: 2.1
  Binding of a rabbit serum to looped peptides: 0.4

## HEGHQTAAFRDVLVV
[2]
  Rabbit serum linear peptides: 0.2
  Rabbit serum looped peptides: 0.8

## HRWHTMVQTGTPNVT
[3]
  Binding of Control Serum Blood-Bank to Looped peptides: 0.4
  Binding of Control serum Blood-bank to linear peptides: 0.8
  Binding of Control serum LUMC to linear peptides: 0.4
  Binding of Control serum LUMC to looped peptides: 0.4
